In a melting point compilation (Tetko et al.; mined from patent text by program, amines drawn as free bases though some values may be those of a salt):

| Structure (SMILES) | melting point [°C] |
| --- | --- |
| CC(C)CC(CO)NC(=O)C(Cc1cn(NC(=O)OCc2ccccc2)cn1)NC(=O)CCCc1ccccc1 (single isomer, unassigned; (-)) | 178 to 180 |
| CCCCCCCCCCCCCCOc1cccc(CC(=O)OC)c1 | 31 to 33 |
| COC=C(C(=O)OC)c1ccccc1 | 37 to 38 |
| CSC(=S)NCc1ccc(O)cc1 | 90 to 91 |
| COc1c(Br)cccc1[N+](=O)[O-] | 55 to 56 |
| CN(C(=O)COc1nc(F)ns1)c1ccccc1 | 82 |
| CCCCCCCCCCCCCCCC1Cc2cc(C(=O)O)ccc2N1 (racemic) | 102 to 104 |
| COC(=O)c1cc([N+](=O)[O-])c(C(F)(F)F)cc1N | 175 to 177 |
| Cn1cccc1C(N)=S | 87 to 88 |
| Brc1ccccc1CCn1ccccc1=NC(=NC1CCCCC1)NC1CCCCC1 | 125 to 129 |
| CCOCc1nc2c(N)nc3ccccc3c2n1CCCCC(N)=O | 198 to 200 |
| CCCN(CCC)C1Cn2cnc3cccc(c32)C1C (configuration not stated) | 78 to 84 |
| CCCCN(CCCC)C(=O)CC(C)Nc1c(C#N)cnn1-c1ccc(Cl)c(Cl)c1Cl (configuration not stated) | 101 to 103 |
| O=C1CCC(Cc2ccccc2Cl)CC1 | 48 |
| CCOC(=O)NNC(=O)NCC(=O)OC | 116 to 121 |
| CCOC(=O)CNS(=O)(=O)c1sccc1C=O | 74 to 76 |
| CC(=O)Cn1c(CO)nc(C(C)C)c1Sc1cc(Cl)cc(Cl)c1 | 165 to 167 |
| CN(CC(O)c1ccc(Br)cc1)C(=O)OC(C)(C)C (configuration not stated) | 80 to 82 |
| Cc1c(C)c2c(c(C)c1O)SC(CCCI)O2 (configuration not stated) | 72 to 75 |
| C=CCON=C(C(=O)OCC)c1csc(NC(c2ccccc2)(c2ccccc2)c2ccccc2)n1 | 130 to 132 |
| CNC(=O)N1CC(Oc2cccc(C)c2)C1 | 138 to 142 |
| CCC(C)(C(=O)c1ccc(N2CCOCC2)cc1)N1CCOCC1 (configuration not stated) | 111 to 114 |
| C[C@@H](N1CCN(c2nnn(Cc3ccc(C(F)(F)F)cc3)n2)CC1)[C@](O)(Cn1cncn1)c1ccc(F)cc1F | 71 to 72 |
| COc1cc2c(c(OC)c1OC)C(C)(C)CC(C=O)=C2 | 178 to 180 |
| COc1ccccc1N1CCN(CC(O)CCl)CC1 (configuration not stated) | 96 to 98 |
| CCCC1Cc2c3c(c(C)c(C)c2C1=O)OC(C(=O)O)C3 (configuration not stated) | 161 |
| CCOC(=O)C(=O)Nc1cc(Cl)c(Cl)c(Cl)c1 | 148 to 151 |
| Cc1cnc(N(C)C)nc1-c1ccncc1 | 114 to 116 |
| Cn1ncc(C(=O)N2CCOCC2)c1C(=O)Nc1ccn2nc(N3CCOCC3)nc2c1 | 206 to 208 |
| CNc1ncnc2c1c(=O)n(C)c(=O)n2C | 178 to 179 |

The next lines start with the values.

| melting point [°C] | Structure (SMILES) |
| --- | --- |
| 214 to 216 | COc1cc(C)c2ccc(=O)[nH]c2n1 |
| 159 to 162 | CC(O)CC(=O)Nc1c(C(=O)c2ccccc2)[nH]c2cc(Cl)ccc12 (configuration not stated) |
| 143 to 144 | CCCCS(=O)(=O)Oc1cn(C)c2ccccc2c1=O |
| 71 to 73 | CC(=O)SCCC(=O)Oc1ccc([N+](=O)[O-])cc1 |
| 149 to 151 | COc1ccc(S(=O)(=O)N2Cc3cc(C)ccc3N(C(=O)c3ccccc3-n3cccn3)CC2C(=O)O)cc1 (configuration not stated) |
| 123 to 124 | COC(=O)CCSC(C)(C)C(NS(=O)(=O)c1ccc(Oc2ccc(F)cc2)cc1)C(=O)O (configuration not stated) |
| 83 to 84 | COc1cc(Cl)cc(CSCCNC(=O)c2c(Cl)cccc2Cl)c1 |
| 134 to 137 | O=C1C2CCCC2=Nc2ccccc2N1Cc1ccc(F)cc1 (configuration not stated) |
| 77 to 79 | CC(=O)Oc1ccccc1CC1c2ccccc2Oc2ccccc21 |
| 183 to 184 | C=CCn1c(C)nc2c3c(c(C(=O)OCC)cc21)C(=O)CC1(Cc2ccccc2C1)N3 |
| 175 to 179 | COc1ccc(/C=C/c2nc3ccccc3c(=O)o2)cc1OC |
| 86.8 to 90 | CC(C)(C)[S@@](=O)NC1(c2ccc3c(C(F)(F)F)c(O[C@H]4CC[C@H](C(C)(C)C)CC4)ccc3c2)COC1 |
| 230 | O=c1c(-c2cccc(F)c2)coc2c(O)c(O)ccc12 |
| > 300 | Cc1nc(-c2cc(C(N)=O)c(=O)[nH]c2C)cs1 |
| 60 to 62 | COC(=O)c1ccc2c(c1)-n1cccc1CO2 |
| 162 to 165 | CN(Cc1ccc(CCn2cnc3cc(-c4ccc(Cl)cc4)sc3c2=O)cc1)C(=O)CCl |
| 221 to 223 | COc1ccc(-c2cc3cc(F)c(F)cc3[nH]2)cc1NC(=S)Nc1cccc(C(=O)O)c1 |
| 151 | O=C(O)Cc1ccc(C2CC(=O)c3ccccc32)cc1 (configuration not stated) |
| 70 | C#CCOC(=O)C1=C(C)NN=C(CC)C1c1cccc([N+](=O)[O-])c1 (configuration not stated) |
| 178 to 180 | O=C(CCl)NCC(O)(c1ccccc1)c1ccccc1 |
| 70 | Cn1nc(CNC(=O)c2ccccc2)nc1NCCCOc1cccc(CN2CCCCC2)c1 |

| melting point [°C] | Structure (SMILES) |
| --- | --- |
| 178 to 179 | Nc1ccc(F)c(-c2ccc3ncccc3c2)c1F |
| 174 to 176 | NNc1nc2ccc(C(F)(F)F)cc2n(OCc2ccccc2)c1=O |
| 224 to 228 | CC=Cc1cccc2c(=O)c(C)c(C(=O)O)oc12 |
| 160 to 161 | CCC(C)(Oc1ccc(CC(=O)c2ccc3c(c2)CCC3)cc1)C(=O)O (configuration not stated) |
| 167 to 169 | CSCc1cn(C)c2cc(F)ccc2c1=O |
| 113 to 114 | Cc1cccc(C2(O)c3cc(NC(=O)CC(C)(C)C)c(C)c(C)c3OC2(C)C)c1 (configuration not stated) |
| 134 to 137 | N#Cc1cccc(C2=NOC3(C2)OC(=O)c2ccccc23)c1 (configuration not stated) |
| 133 to 135 | O=C(CN1CCN(CC(=O)N2CCC3(CC2)Cn2cc([N+](=O)[O-])nc2O3)CC1)Nc1ccc(C(F)(F)F)cc1 |
| 86 to 87 | COc1ccc(C2(c3cccc(CCc4ccccc4)n3)OCCCO2)cc1OC |
| 229 to 231 | FC(F)c1nc2ccccc2n1-c1nc(Oc2cccnc2)nc(N2CCOCC2)n1 |
| 93 to 95 | COC(=O)c1ccc(CN(C2CCCCC2C)S(=O)(=O)c2ccc(Cl)cc2)cc1 (configuration not stated) |
| 196 to 198 | COCC(=O)NCc1cccc2c1C(=O)N(C1CCC(=O)NC1=O)C2=O (configuration not stated) |
| 127 to 132 | COc1ccccc1Oc1c(Cl)nc(-c2cccc(OCc3ccccc3)c2)nc1Cl |
| 116 to 119 | CCc1nc2c(cnn2CC)c(NC2CCOCC2)c1CNC(=O)c1cccc(C(=O)NCc2ccc(OC)c(-c3cccc(CN4CCCN(C)CC4)c3)c2)c1 |
| 89 to 92 | CCCCc1nn(CC(=O)c2ccccc2)c(=O)n1Cc1ccc(-c2ccccc2-c2nnn[nH]2)cc1 |
| > 220 | NS(=O)(=O)c1ccc(NN=C2C(=O)Nc3cc4c(cc32)OCO4)cc1 |
| 177 to 179 | CC(O)(CCN1C(=O)c2ccccc2C1=O)c1ccc(-c2ccc(Cl)cc2)cc1 (configuration not stated) |
| 229 to 233 | CC(=O)Nc1ccc(S(=O)(=O)Nc2cc(Cl)nc(N3CCCC3)n2)cc1 |
| 120 | COc1ccnc(CSc2nc3cc(OC(F)(F)C(F)Cl)ccc3[nH]2)c1 (configuration not stated) |
| 198 to 199 | O=C(N[C@H]1CCCNC1=O)c1cc(F)cc(F)c1 |
| 244 | COc1cc(OCc2ccccc2)ccc1-c1nc2ncccc2[nH]1 |
